# Strand notation (5' to 3'): a small letter for the sugar, then the base; units joined by * are phosphorothioate-linked, units joined directly phosphodiester-linked; [ ] holds rarer units or linkages, { } end groups; capitals alone tell only the bases. d = 2'-deoxy (DNA)
# Key:
# ICAM-1 [1] = experiment: ELISA of ICAM-1 cell surface expression in oligonucleotide-pretreated, cytokine-stimulated HUVEC; assay type: cell-based, human; details: HUVEC, interleukin-1β; concentration not given
# ICAM-1 [2] = experiment: Immunoprecipitation of 35S-labelled ICAM-1 from A549 cells; assay type: cell-based, human; details: 1 μM oligonucleotide, interleukin-1β
# Description: The specificity of the antisense oligonucleotides ISIS 1570 and ISIS 1939 for ICAM-1 was evaluated by immunoprecipitation of ^35S-labelled proteins. A549 cells were grown to confluence in 25 cm^2 tissue culture flasks and treated with antisense oligonucleotides as described in Example 4. The cells were stimulated with interleukin-1β for 14 hours, washed with methionine-free DMEM plus 10% dialyzed fetal calf serum, and incubated for 1 hour in methionine-free medium containing 10% dialyzed fetal calf serum, 1 μM oligonucleotide and interleukin-1β as indicated. ^35S-Methionine/cysteine mixture (Tran^35S-label, purchased from ICN, Costa Mesa, Calif.) was added to the cells to an activity of 100 μCi/ml and the cells were incubated an additional 2 hours. Cellular proteins were extracted by incubation with 50 mM Tris-HCl pH 8.0, 150 mM NaCl, 1.0% NP-40, 0.5% deoxycholate and 2 mM EDTA (0.5 ml per well) at 4° C. for 30 minutes. The extracts were clarified by centrifugation at 18,000×g for 20 minutes. The supernatants were preadsorbed with 200 μl protein G-Sepharose beads (Bethesda Research Labs, Bethesda Md.) for 2 hours at 4° C., divided equally and incubated with either 5 μg ICAM-1 monoclonal antibody (purchased from AMAC Inc., Westbrook Me.) or HLA-A, B antibody (W6/32, produced by murine hybridoma cells obtained from the American Type Culture Collection, Bethesda, Md.) for 15 hours at 4° C. Immune complexes were trapped by incubation with 200 μl of a 50% suspension of protein G-Sepharose (v/v) for 2 hours at 4° C., washed 5 times with lysis buffer and resolved on an SDS-polyacrylamide gel. Proteins were detected by autoradiography.
# ICAM-1 [3] = experiment: ELISA screening for ICAM-1 expression in interleukin-1β-stimulated cells (HUVEC and A549); assay type: cell-based, human; details: interleukin-1β-stimulated cells, two cell lines (HUVEC, A549)
# [4] = test system: adherence of HL-60 cells to human umbilical vein endothelial cells; experiment: Cell adherence assay: DMSO differentiated HL-60 cells to TNF treated HUVEC; assay type: cell-based; details: TNF-α stimulated HUVEC, Example 11; control 19%
# Description: Target cells are grown as a monolayer in a multiwell plate, treated with oligonucleotide followed by cytokine. The adhering cells are then added to the monolayer cells and incubated for 30 to 60 minutes at 37° C. and washed to remove nonadhering cells. Cells adhering to the monolayer may be determined either by directly counting the adhering cells or prelabeling the cells with a radioisotope such as ^51Cr and quantitating the radioactivity associated with the monolayer as described. Dustin and Springer, J. Cell Biol. 1988, 107, 321-331. Antisense oligonucleotides may target either ICAM-1, VCAM-1 or ELAM-1 in the assay.
# An example of the effects of antisense oligonucleotides targeting ICAM-1 mRNA on the adherence of DMSO differentiated HL-60 cells to tumor necrosis factor treated human umbilical vein endothelial cells is shown in FIG. 7. Human umbilical vein endothelial cells were grown to 80% confluence in 12 well plates. The cells were treated with 2 μM oligonucleotide diluted in Opti-MEM containing 8 μM DOTMA for 4 hours at 37° C. The medium was removed and replaced with fresh endothelial cell growth medium (EGM-UV) containing 2 μM of the indicated oligonucleotide and incubated 4 hours at 37° C. Tumor necrosis factor, 1 ng/ml, was added to cells as indicated and cells incubated for an additional 19 hours. The cells were washed once with EGM-UV and 1.6×10^6 HL-60 cells differentiated for 4 days with 1.3% DMSO added. The cells were allowed to attach for 1 hour at 37° C. and gently washed 4 times with Dulbecco's phosphate-buffered saline (D-PBS) warmed to 37° C. Adherent cells were detached from the monolayer by addition of 0.25 ml of cold (4EC) phosphate-buffered saline containing 5 mM EDTA and incubated on ice for 5 minutes. The number of cells removed by treatment with EDTA was determined by counting with a hemocytometer. Endothelial cells detached from the monolayer by EDTA treatment could easily be distinguished from HL-60 cells by morphological differences. In the absence of tumor necrosis factor, 3% of the HL-60 cells bound to the endothelial cells. Treatment of the endothelial cell monolayer with 1 ng/ml tumor necrosis factor increased the number of adhering cells to 59% of total cells added (FIG. 7).
# Human umbilical vein endothelial (HUVEC) cells were grown and treated with oligonucleotides as in Example 4. Cells were treated with either ISIS 1939, ISIS 1940, or the control oligonucleotide ISIS 1821 for 4 hours, then stimulated with TNF-α for 20 hours. Basal HUVEC minimally bound HL-60 cells, while TNF-stimulated HUVEC bound 19% of the total cells added. Pretreatment of the HUVEC monolayer with 0.3 ìM ISIS 1939 reduced the adherence of HL-60 cells to basal levels, as shown in FIG. 11.
# [5] = test system: complementary DNA sequences (ICAM-1 target sites); experiment: Tm of oligonucleotide hybridized to complementary DNA; assay type: binding, human; details: 4 μM each strand, 100 mM Na+, 10 mM phosphate, 0.1 mM EDTA, pH 7.0; phosphorothioate vs complementary phosphodiester DNA
# From the text: The antisense oligonucleotides (synthesized as phosphorothioates) were hybridized to their complementary DNA sequences (synthesized as phosphodiesters). […] Tm's and free energies of duplex formation were obtained from fits of data to a two-state model with linear sloping baselines ([…]. and D. H. […] Results are averages of at least three experiments.
# [6] = test system: corneal allograft rejection; experiment: Rat corneal allograft rejection (ACI donor to Lewis recipient); assay type: in vivo
substance,measurement,setting,value
"ISIS 1558: P=O oligonucleotide, human ICAM-1 AUG Codon (64-81), SEQ ID NO 1, TGGGAGCCATAGCGAGGC (unmodified DNA)",inhibition of ICAM-1 expression,ICAM-1 [1],did not inhibit expression of ICAM-1
"ISIS 1940: P=S, human ICAM-1 3′-Untranslated (2975-2994), polyadenylation signal, SEQ ID NO 16, TTGAGAAAGCTTTATTAACT (antisense dT*dT*dG*dA*dG*dA*dA*dA*dG*dC*dT*dT*dT*dA*dT*dT*dA*dA*dC*dT)",ICAM-1 synthesis,ICAM-1 [2],did not significantly reduce ICAM-1 synthesis
same,"inhibition of ICAM-1 expression, relative activity in words",ICAM-1 [3],did not inhibit ICAM-1 expression
same,percentage of HL-60 cells adhering,[4],9%
same,Tm,[5],< 50 °C
"ISIS 9125: rat ICAM-1 antisense, AGGGCCACTGCTCGTCCACA, all 2′-deoxyphosphorothioate (SEQ ID NO: 86) (antisense dA*dG*dG*dG*dC*dC*dA*dC*dT*dG*dC*dT*dC*dG*dT*dC*dC*dA*dC*dA)",corneal edema vs OPTISOL alone group,[6]; day 3 post-surgery,more corneal edema
same,"grading for cornea opacity and neovascularization, better than OPTISOL alone group",[6]; day 3 post-surgery,50%
same,average days to rejection,"[6]; donor corneas incubated 24 hours in OPTISOL plus 400 μg/ml oligonucleotide, OPTISOL alone 4.80 days",6.33 days
same,range of days to rejection,[6]; donor corneas incubated 24 hours in OPTISOL plus oligonucleotide,6 to 10 days
same,increase of days to rejection,[6]; over the 24 hour OPTISOL incubation control group,25%
